Results taken from patent US9598459B2, “Pharmaceutical compositions and methods” (priority 2015, dated 2017).
Where “and” joins values, the source holds several entries; their conditions need not be identical. Equal entries are not always repeated.

How the values were obtained:
[1] = in vitro
[2] = in vitro; details: dog
[3] = Toxicity in RAW267.4 cells (neutral red); details: mouse, RAW267.4 cells, CC50, Neutral Red (Toxicity), Example 11
[4] = cited from earlier work
[5] = Cytotoxicity on primary human foreskin fibroblasts; details: human
[6] = system: MA-104

Structure (SMILES)	CC50 ([1]; CC50) [µM]	CC50 ([1]; human, CC50)	CC50 ([1]; human, Cytotoxicity 50% CC50) [µM]	CC50 ([2]; CC50) [µg/mL]	CC50 ([2]; Cytotoxicity 50% CC50) [µM]	CC50 [3] [µM]	adverse indications of cell toxicity ([4]; Phase II, patients, 900 mg per day for 2 weeks)	significant toxicities and side effects ([4]; phase I and phase II clinical trials)	CC50 ([5]; primary HFF-1 human foreskin fibroblasts, CC50) [µM]	CC50 ([5]; primary HFF-1 human foreskin fibroblasts, CC50, Cytotoxicity control, Primary HFF-1, CellTiter-Glo) [µM]	CC50 ([5]; primary human foreskin fibroblasts (HFF / HFF-1), CC50, HFF / HFF-1 primary cells) [µM]	CC50 ([5]; primary human foreskin fibroblasts (HFF-1), CC50, Herpes simplex virus type 1 screen, Primary HFF-1, CellTiter-Glo) [µM]	CC50 [6] [µM]
CC#C[C@]1(O)CC[C@H]2[C@@H]3CCC4=CC(=O)CCC4=C3[C@@H](c3ccc4c(c3)OCO4)C[C@@]21C [PT150, (11β,17β)-11-(1,3-benzodioxol-5-yl)-17-hydroxy-17-(1-propynyl)-estra-4,9-dien-3-one]	> 100	7.4 µM and 3.3 µg/mL	7.4	29	17	33	no noted adverse indications of cell toxicity	none were identified	> 150	> 150	> 150	> 150	–
CC#CC1(O)CCC2C3CCC4=CC(=NNC(N)=S)CCC4=C3C(c3ccc4c(c3)OCO4)CC21C.CC#CC1(O)CCC2C3CCC4=CC(=O)CCC4=C3C(c3ccc4c(c3)OCO4)CC21C.CC(C)=O.CCO.O (stereo not drawn) [PT155, ⅓ (11β,17β)-17-Hydroxy-11-[3,4-(methylenedioxy)phenyl]-17-(1-propyn-1-yl)estra-4,9-dien-3-one (ORG34517)×(2EZ)-2-{(11β,17β)-17-hydroxy-11-[3,4-(methylenedioxy)phenyl]-17-(1-propyn-1-yl)estra-4,9-dien-3-ylidene}hydrazinecarbothioamide [71.8% (E), 28.2% (Z)] hemihydrate×¾% acetone× ⅛ ethanol]	–	–	–	–	–	–	–	–	–	–	–	–	17
